According to patent US20110034528A1, “Elansolids, Novel Natural Metabolites of Flexibacter and Antibiotically Active Derivatives Thereof” (priority 2008, published 2011):
In brackets after ≈: the same amount, converted by molar mass.

Assays:
Micrococcus luteus = assay: Minimum inhibitory concentration (MIC) determination; format: cell-based
Procedure: (§1) The determination of minimum inhibitory concentrations was performed as described in J. Antimicrob. Chemother. 2001;48 Suppl 1:5-16.

[1] = system: S. aureus MRS3 (clinical isolate of a multiresistant S. aureus); assay: as above; format: cell-based; settings: Staphylococcus aureus
Procedure: as §1

gram-positive bacteria = assay: Elansolid C1: antibiotic spectrum against gram positive bacteria; format: cell-based
[2] = system: Chromobacterium violaceum; assay: Minimum inhibitory concentration (MIC) determination; format: cell-based
Procedure: as §1

E. faecalis 25912 = assay: as above; format: cell-based; settings: Enterococcus faecalis
Procedure: as §1

Corynebact. fascians = assay: as above; format: cell-based
Procedure: as §1

Mycobacterium lacticola = assay: as above; format: cell-based
Procedure: as §1

S. aureus 29213 = assay: as above; format: cell-based; settings: Staphylococcus aureus
Procedure: as §1

[3] = Transformation of Elansolid A2 in solution; format: physicochemical; settings: in solution (especially in DMSO)

MIC (Micrococcus luteus) [µg/mL]	MIC [1] [µg/mL]	MIC [2] [µg/mL]	MIC (E. faecalis 25912) [µg/mL]	MIC (Corynebact. fascians) [µg/mL]	MIC (Mycobacterium lacticola) [µg/mL]	MIC (S. aureus 29213) [µg/mL]	transformation in solution [3]	Structure (SMILES)	Inhibition zone (gram-positive bacteria; Arthrobacter simplex) [mm]	Inhibition zone (gram-positive bacteria; Bacillus polymyxa) [mm]	Inhibition zone (gram-positive bacteria; Bacillus thuringiensis) [mm]	Inhibition zone (gram-positive bacteria; Brevibact. ammoniagenes) [mm]	Inhibition zone (gram-positive bacteria; Corynebact. fascians) [mm]	Inhibition zone (gram-positive bacteria; Micrococcus luteus) [mm]	Inhibition zone (gram-positive bacteria; Mycobact. chitae) [mm]	Inhibition zone (gram-positive bacteria; Nocardia flava) [mm]	Inhibition zone (gram-positive bacteria; Staph. aureus) [mm]	Inhibition zone (gram-positive bacteria; Streptococcus faecalis) [mm]	activity against selected gram-positive bacteria (gram-positive bacteria; selected gram-positive bacteria)
0.4 (≈ 0.551 µM)	1.7 (≈ 2.34 µM)							CC1=CC2C(C(C(Nc3ccccc3C(=O)O)c3ccc(O)cc3)C1\C=C/C=C/C=C\C(O)C(C)C(O)C/C=C(C)/C=C/C(=O)O)C(C)(C)CC2(C)O (stereo not drawn) [Elansolid C1]	25	20	17	17	26	27	15	14	11	14	bactericidal activity
0.2 (≈ 0.34 µM)	0.8 (≈ 1.36 µM)	3.3 (≈ 5.6 µM)	64 (≈ 109 µM)	1.6 (≈ 2.72 µM)	3.3 (≈ 5.6 µM)	4 (≈ 6.79 µM)	transformed into Elansolid A1	CC1=CC2C(C3C1\C=C/C=C/C=C\C(O)C(C)C(O)C/C=C(C)/C=C/C(=O)OC3c1ccc(O)cc1)C(C)(C)CC2(C)O (stereo not drawn) [Elansolid A2]											
